Laboratory results as given in US20020137929A1, “1 - (3-heterocyclylphenyl) isothiourea, -isourea, -guanidine and -amidine herbicidal agents” (Intellectual Property Department, BASF Aktiengesellschaft, priority 1998, published 2002).

Columns and labels:
[1] = test system: ORYSAT (Rice, Tebonnet); test: Postemergence herbicidal evaluation; format: in vivo, Oryza sativa, (L.) Tebonnet; conditions: for ORYSAT herbicidal rating: postemergence
Procedure, shortened: (§1)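 Visual 0-9 injury score (stand, vigor, malformation, size, chlorosis, appearance vs untreated) taken four to five weeks post-spray, averaged across repeat tests. Test plants about two weeks old; foliar spray of acetone/water (1:1) with 0.5% surfactant delivering ~0.0156-0.500 kg active/ha.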

[2] = test system: SAGPY (Arrowhead (Pygmaea)); test: Preemergence weed control under flooded paddy conditions; format: in vivo, Sagittaria pygmaea; conditions: rated 3-4 weeks after treatment
Procedure, shortened: (§2)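 Flooded-pot preemergence screen with silt loam and seeds in the upper 0.5 cm. Dose about 0.0313 to 0.500 kg/ha, delivered into flood water; visual 0-9 score after 3 to 4 weeks.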

[3] = test system: ZEAMX (Corn, Field); test: Preemergence herbicidal evaluation; format: in vivo, Zea mays; conditions: rated 4-5 weeks after treatment; for ZEAMX rating: preemergence, 0-9 scale
Procedure, shortened: (§3)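 In this greenhouse assay, monocot and dicot seeds are planted in soil and treated prior to emergence with an aqueous acetone spray (about 0.0156-0.500 kg/ha). Plants are assessed visually against control on a 0-9 scale after 4-5 weeks.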

[4] = test system: CYPIR (Rice Flatsedge); test: Preemergence weed control under flooded paddy conditions; format: in vivo, Cyperus iria; conditions: rated 3-4 weeks after treatment
Procedure, shortened: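 Silt loam, seeds in top 0.5 cm; flood held 1.5-3 cm; test cpd as acetone/water 50/50 into flood water, ~0.0313-0.500 kg/ha a.i.; greenhouse 3-4 wk; visual 0-9 score vs control.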

[5] = test system: CASOB (Sicklepod); test: Postemergence herbicidal evaluation; format: in vivo, Cassia obtusifolia; conditions: for CASOB herbicidal rating: postemergence
Procedure, shortened: as §1

[6] = test system: MOOVA (Monochoria); test: Preemergence weed control under flooded paddy conditions; format: in vivo, Monochoria vaginalis; conditions: rated 3-4 weeks after treatment
Procedure, shortened: as §2

[7] = test system: GALAP (Galium); test: Preemergence herbicidal evaluation; format: in vivo, Galium aparine; conditions: rated 4-5 weeks after treatment; for GALAP rating: preemergence, 0-9 scale
Procedure, shortened: as §3

[8] = test system: TRZAWR (Wheat, Winter, cv Riband); test: Preemergence herbicidal evaluation; format: in vivo, Triticum aestivum; conditions: rated 4-5 weeks after treatment; for TRZAWR rating: preemergence, 0-9 scale
Procedure, shortened: as §3

[9] = test system: CYPSE (Flatsedge); test: Postemergence weed control under flooded paddy conditions; format: in vivo, Cyperus serotinus; conditions: postemergence weeds
Procedure, shortened: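 Weeds 3 to 5 cm tall and rice seedlings at the 1.5 to 2.5 leaf stage were flooded, with water held 1.5 to 3 cm above the soil. Compounds in 50/50 v/v aqueous/acetone went into the flood water at about 0.0313 to 0.500 kg/ha. Visual 0-9 ratings versus control were made 3 to 4 weeks later.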

[10] = test system: ORYSAT (Rice, Tebonnet); test: Preemergence herbicidal evaluation; format: in vivo, Oryza sativa, (L.) Tebonnet; conditions: rated 4-5 weeks after treatment; for ORYSAT rating: preemergence, 0-9 scale
Procedure, shortened: as §3

[11] = test system: SETVI (Foxtail, Green); test: Preemergence herbicidal evaluation; format: in vivo, Setaria viridis; conditions: rated 4-5 weeks after treatment; for SETVI rating: preemergence, 0-9 scale
Procedure, shortened: as §3

[12] = test system: GLXMAW (Soybean, Williams); test: Preemergence herbicidal evaluation; format: in vivo, Glycine max, (L.) Merr. cv Williams; conditions: rated 4-5 weeks after treatment; for GLXMAW rating: preemergence, 0-9 scale
Procedure, shortened: as §3

[13] = test system: ECHCG (Barnyardgrass); test: Postemergence herbicidal evaluation; format: in vivo, Echinochloa crus-galli; conditions: for ECHCG herbicidal rating: postemergence
Procedure, shortened: as §1

[14] = test system: CHEAL (Lambsquarters, Common); test: Postemergence herbicidal evaluation; format: in vivo, Chenopodium album; conditions: for CHEAL herbicidal rating: postemergence
Procedure, shortened: as §1

C=CCN1C(=O)C(CC(=O)NOC)SC1=Nc1cc(-n2c(=O)cc(C(F)(F)F)n(C)c2=O)c(F)cc1Cl (centres unmarked) [Compound 85]
ORYSAT herbicidal rating ([1]; rate 0.0156 kg/ha): 1.0
ORYSAT herbicidal rating ([1]; rate 0.0313 kg/ha): 1.0
ORYSAT herbicidal rating ([1]; rate 0.0625 kg/ha): 1.5
ORYSAT herbicidal rating ([1]; rate 0.1250 kg/ha): 2.5
SAGPY herbicidal effect rating ([2]; 0.0313 kg/ha): 3.0
SAGPY herbicidal effect rating ([2]; 0.0625 kg/ha): 3.0
SAGPY herbicidal effect rating ([2]; 0.1250 kg/ha): 9.0
SAGPY herbicidal effect rating ([2]; 0.2500 kg/ha): 9.0
ZEAMX rating ([3]; 0.0156 kg/ha): 0.0
ZEAMX rating ([3]; 0.0313 kg/ha): 0.0
ZEAMX rating ([3]; 0.0625 kg/ha): 0.0
ZEAMX rating ([3]; 0.1250 kg/ha): 2.0
ZEAMX rating ([3]; 0.2500 kg/ha): 5.0
ZEAMX rating ([3]; 0.5000 kg/ha): 9.0
CYPIR herbicidal effect rating ([4]; 0.0313 kg/ha): 3.0
CYPIR herbicidal effect rating ([4]; 0.0625 kg/ha): 7.0
CYPIR herbicidal effect rating ([4]; 0.1250 kg/ha): 9.0
CYPIR herbicidal effect rating ([4]; 0.2500 kg/ha): 9.0
CASOB herbicidal rating ([5]; rate 0.0156 kg/ha): 0.0
CASOB herbicidal rating ([5]; rate 0.0313 kg/ha): 0.0
CASOB herbicidal rating ([5]; rate 0.0625 kg/ha): 0.0
CASOB herbicidal rating ([5]; rate 0.1250 kg/ha): 2.0
MOOVA herbicidal effect rating ([6]; 0.0313 kg/ha): 9.0
MOOVA herbicidal effect rating ([6]; 0.0625 kg/ha): 9.0
MOOVA herbicidal effect rating ([6]; 0.1250 kg/ha): 9.0
MOOVA herbicidal effect rating ([6]; 0.2500 kg/ha): 9.0
GALAP rating ([7]; 0.0156 kg/ha): 0.0
GALAP rating ([7]; 0.0313 kg/ha): 0.0
GALAP rating ([7]; 0.0625 kg/ha): 0.0
GALAP rating ([7]; 0.1250 kg/ha): 4.0
GALAP rating ([7]; 0.2500 kg/ha): 6.0
GALAP rating ([7]; 0.5000 kg/ha): 9.0
TRZAWR rating ([8]; 0.0156 kg/ha): 0.0
TRZAWR rating ([8]; 0.0313 kg/ha): 0.0
TRZAWR rating ([8]; 0.0625 kg/ha): 0.0
TRZAWR rating ([8]; 0.1250 kg/ha): 3.0
TRZAWR rating ([8]; 0.2500 kg/ha): 5.0
TRZAWR rating ([8]; 0.5000 kg/ha): 8.0
Herbicidal rating CYPSE ([9]; Rate 0.0313 kg/ha, rated 3 to 4 weeks after treatment): 0.0
Herbicidal rating CYPSE ([9]; Rate 0.0625 kg/ha, rated 3 to 4 weeks after treatment): 2.0
Herbicidal rating CYPSE ([9]; Rate 0.1250 kg/ha, rated 3 to 4 weeks after treatment): 2.0
Herbicidal rating CYPSE ([9]; Rate 0.2500 kg/ha, rated 3 to 4 weeks after treatment): 9.0
ORYSAT rating ([10]; 0.0156 kg/ha): 0.0
ORYSAT rating ([10]; 0.0313 kg/ha): 0.0
ORYSAT rating ([10]; 0.0625 kg/ha): 0.0
ORYSAT rating ([10]; 0.1250 kg/ha): 0.0
ORYSAT rating ([10]; 0.2500 kg/ha): 2.0
ORYSAT rating ([10]; 0.5000 kg/ha): 3.0
SETVI rating ([11]; 0.0156 kg/ha): 0.0
SETVI rating ([11]; 0.0313 kg/ha): 0.0
SETVI rating ([11]; 0.0625 kg/ha): 0.0
SETVI rating ([11]; 0.1250 kg/ha): 0.0
SETVI rating ([11]; 0.2500 kg/ha): 9.0
SETVI rating ([11]; 0.5000 kg/ha): 9.0
GLXMAW rating ([12]; 0.0156 kg/ha): 0.0
GLXMAW rating ([12]; 0.0313 kg/ha): 0.0
GLXMAW rating ([12]; 0.0625 kg/ha): 0.0
GLXMAW rating ([12]; 0.1250 kg/ha): 2.0
GLXMAW rating ([12]; 0.2500 kg/ha): 2.0
GLXMAW rating ([12]; 0.5000 kg/ha): 9.0
ECHCG herbicidal rating ([13]; rate 0.0156 kg/ha): 0.0
ECHCG herbicidal rating ([13]; rate 0.0313 kg/ha): 0.0
ECHCG herbicidal rating ([13]; rate 0.0625 kg/ha): 0.0
ECHCG herbicidal rating ([13]; rate 0.1250 kg/ha): 9.0
CHEAL herbicidal rating ([14]; rate 0.0156 kg/ha): 2.0
CHEAL herbicidal rating ([14]; rate 0.0313 kg/ha): 4.0
CHEAL herbicidal rating ([14]; rate 0.0625 kg/ha): 4.0
CHEAL herbicidal rating ([14]; rate 0.1250 kg/ha): 9.0

COC(=O)CCN1C(=O)CSC1=Nc1cc(-n2c(=O)cc(C(F)(F)F)n(C)c2=O)c(F)cc1Cl [Compound 28, Methyl 2-{{2-chloro-5-[3,6-dihydro-3-methyl-2,6-dioxo-4-(trifluoromethyl)-1(2H)-pyrimidinyl]-4-fluorophenyl}imino}-4-oxo-3-thiazolidinepropionate]
Postemergence herbicidal rating ORYSAT ([1]; Rate 0.0158 kg/ha): 2.5
Postemergence herbicidal rating ORYSAT ([1]; Rate 0.0315 kg/ha): 3.5
Postemergence herbicidal rating ORYSAT ([1]; Rate 0.0630 kg/ha): 6.0
Herbicidal rating SAGPY ([2]; 0.0313 kg/ha): 0.0
Herbicidal rating SAGPY ([2]; 0.0625 kg/ha): 0.0
Herbicidal rating SAGPY ([2]; 0.1250 kg/ha): 0.0
Herbicidal rating SAGPY ([2]; 0.2500 kg/ha): 0.0
Preemergence herbicidal rating ZEAMX ([3]; rate 0.0625 kg/ha): 5.0
Preemergence herbicidal rating ZEAMX ([3]; rate 0.1250 kg/ha): 9.0
Preemergence herbicidal rating ZEAMX ([3]; rate 0.2500 kg/ha): 8.0
Herbicidal rating CYPIR ([4]; 0.0313 kg/ha): 9.0
Herbicidal rating CYPIR ([4]; 0.0625 kg/ha): 9.0
Herbicidal rating CYPIR ([4]; 0.1250 kg/ha): 9.0
Herbicidal rating CYPIR ([4]; 0.2500 kg/ha): 9.0
Postemergence herbicidal rating CASOB ([5]; Rate 0.0158 kg/ha): 1.0
Postemergence herbicidal rating CASOB ([5]; Rate 0.0315 kg/ha): 1.0
Postemergence herbicidal rating CASOB ([5]; Rate 0.0630 kg/ha): 4.0
Herbicidal rating MOOVA ([6]; 0.0313 kg/ha): 9.0
Herbicidal rating MOOVA ([6]; 0.0625 kg/ha): 9.0
Herbicidal rating MOOVA ([6]; 0.1250 kg/ha): 9.0
Herbicidal rating MOOVA ([6]; 0.2500 kg/ha): 9.0
Preemergence herbicidal rating GALAP ([7]; rate 0.0625 kg/ha): 0.0
Preemergence herbicidal rating GALAP ([7]; rate 0.1250 kg/ha): 0.0
Preemergence herbicidal rating GALAP ([7]; rate 0.2500 kg/ha): 9.0
Preemergence herbicidal rating TRZAWR ([8]; rate 0.0625 kg/ha): 0.0
Preemergence herbicidal rating TRZAWR ([8]; rate 0.2500 kg/ha): 8.0
Herbicidal rating CYPSE ([9]; rate 0.0313 kg/ha, 3-4 weeks after treatment): 0.0
Herbicidal rating CYPSE ([9]; rate 0.0625 kg/ha, 3-4 weeks after treatment): 0.0
Herbicidal rating CYPSE ([9]; rate 0.1250 kg/ha, 3-4 weeks after treatment): 0.0
Herbicidal rating CYPSE ([9]; rate 0.2500 kg/ha, 3-4 weeks after treatment): 0.0
Preemergence herbicidal rating ORYSAT ([10]; rate 0.0625 kg/ha): 0.0
Preemergence herbicidal rating ORYSAT ([10]; rate 0.1250 kg/ha): 2.0
Preemergence herbicidal rating ORYSAT ([10]; rate 0.2500 kg/ha): 8.0
Preemergence herbicidal rating SETVI ([11]; rate 0.0625 kg/ha): 7.0
Preemergence herbicidal rating SETVI ([11]; rate 0.1250 kg/ha): 9.0
Preemergence herbicidal rating SETVI ([11]; rate 0.2500 kg/ha): 9.0
Preemergence herbicidal rating GLXMAW ([12]; rate 0.0625 kg/ha): 3.0
Preemergence herbicidal rating GLXMAW ([12]; rate 0.1250 kg/ha): 5.0
Preemergence herbicidal rating GLXMAW ([12]; rate 0.2500 kg/ha): 9.0
Postemergence herbicidal rating ECHCG ([13]; Rate 0.0158 kg/ha): 0.0
Postemergence herbicidal rating ECHCG ([13]; Rate 0.0315 kg/ha): 5.0
Postemergence herbicidal rating ECHCG ([13]; Rate 0.0630 kg/ha): 9.0
Postemergence herbicidal rating CHEAL ([14]; Rate 0.0158 kg/ha): 2.0
Postemergence herbicidal rating CHEAL ([14]; Rate 0.0315 kg/ha): 4.0
Postemergence herbicidal rating CHEAL ([14]; Rate 0.0630 kg/ha): 4.0
